Results as given in patent publication US20260034200A1, “TOLEROGENIC PEPTIDES” (University of Birmingham, priority 2022, published 2026).

Tests used:
[1] = system: GAD65 P10-specific T-cell hybridomas; assay: T-cell hybridoma screen with Priess cells as APCs, IL-2 ELISA; type: cell-based, mouse; conditions: hybridoma multi-clone 6 with HLA-DRB1*04:01 expressing APCs
Protocol: HLA-DR4 transgenic mice were injected subcutaneously with Complete Freund's Adjuvant (CFA) and 100 μg of GAD65 P10 30-mer. After 10 days, splenocytes were isolated and re-stimulated with GAD65 P10 30-mer for a further 4-5 days before fusion with hypoxanthine-aminopterin-thymidine (HAT) sensitive BW5147 cells using polyethylene glycol (PEG). Fused hybridomas were expanded in HAT selection media before antigen-specific screening. Co-cultures of 1×10^5 hybridomas and 2×10^5 Priess cells (an Epstein-Barr Virus (EBV) transformed DR4 (DRB1*04:01) expressing human cell line (ECACC 86052111)) as antigen presenting cells (APCs) were incubated for 48 h in a 96-well plate with peptide, whole GAD65 protein, or media only. Antigen-specific responses were determined by IL-2 secretion into culture supernatant by ELISA assay (BioLegend 431004). Hybridomas that proliferated in response to both GAD65 protein and GAD65 30-mer were single cell cloned by limiting dilution.
Six 15-mers that spanned the parent 30-mer amino acid sequence were generated by 3 amino acid shifts from the N-terminus toward the C-terminus.

[2] = system: MHC class II molecules on fixed or non-fixed HLA-DR4 transgenic mouse splenocytes (hybridoma SC3 readout); assay: Fixed APC T-cell hybridoma screen; type: cell-based; conditions: co-culture with formaldehyde fixed and non-fixed HLA-DR4 splenocytes, 48 h
Protocol: Splenocytes from HLA-DR4 transgenic mice were formaldehyde fixed by the following protocol performed at room temperature; 5 min incubation with 0.5% w/v formaldehyde in PBS at 1×10^6 cells/mL quenched by addition of an equal volume of 0.4 M glycine in PBS solution for a further 5 min, before three washes with cold PBS. T-cell hybridoma screens were set up using 1×10^5 hybridomas and either 2×10^5 formaldehyde fixed APCs or 2×10^5 non-fixed APCs for 48 h co-culture with stimulant or control and responses measured by IL-2 secretion.
The next step was to test if GAD65 P10.5.C+1.6K (P10Sol; SEQ ID NO 23) could bind to: (i) MHC class II molecules without antigen processing and, (ii) to steady-state CD11c^+ APCs. These properties are good indicators of whether a peptide can induce tolerance and be characterised as an apitope (Shepard et al., 2021). Formaldehyde fixation of splenocytes inhibits antigen processing and so to test whether GAD65 P10Sol could bind directly to cell-surface MHC class II without antigen processing, GAD65 P10-specific hybridoma SC3 was co-cultured with fixed or non-fixed splenocytes from HLA-DR4 transgenic mice. […] To test whether P10Sol could bind to steady-state CD11c^+ APCs in vivo, HLA-DR4 transgenic mice were injected with 80 μg of P10Sol or PBS, with CD11c^+ splenocytes isolated 1 h later and co-cultured with GAD65 P10 hybridomas SC3 or SC22. […]

[3] = system: peripheral blood mononuclear cells (PBMCs); assay: Human PBMC 3H-thymidine incorporation assay; type: cell-based; conditions: for positive response rate in 3H-thymidine incorporation assay: day 7, positive = SI>=3 and ccpm >1000
Protocol: Fresh blood samples were collected in CPDA-tubes. PBMCs from lymphocyte cones or fresh blood were isolated by Ficoll gradient centrifugation, frozen in 40% RPMI-1640, 50% heat inactivated fetal bovine serum (Sigma; F9665) and 10% DMSO and stored in liquid nitrogen until required. Thawed PBMCs were cultured at 1.5×10^6 cells/mL in X-VIVO-15 medium ((Lonza BE02-061Q) supplemented with 5% v/v human AB serum (Sigma H4522), 1× penicillin/streptomycin (Gibco 15140122)) either in the presence of GAD65 P10 30-mer antigen between 20-50 μg/mL or absence of antigen (negative control). Peptide response was measured by 3H radioactive thymidine incorporation on day 5 and day 7, by pulsing cell cultures with ^3H-thymidine (Perkin Elmer), as previously described (Mazza et al., 2002). Positive responses had corrected counts per minute (ccpm) counts >1000 and a stimulation index (SI)≥3, calculated as the fold-change of peptide stimulated condition over the negative control.
The workflow to design and validate tolerogenic apitopes (antigen processing independent T-cell epitopes) begins with identification of peptides predicted to bind to various HLA-DR molecules (pan-DR binders) using a combination of publicly available MHC-binding algorithms (FIG. 1A). In silico analyses identified 9 or 15 amino acid peptides within GAD65 that were extended to ˜30-mer peptides (FIG. 1B) to encourage antigen processing and presentation of a naturally processed epitope (Anderton et al., 2002). To test whether the designed 30-mer peptides could be correctly processed and preferentially induce immune responses in T1D patients, we screened for GAD65 30-mers responses in isolated peripheral blood mononuclear cells (PBMCs) from 20 non-diabetic healthy controls and 40 adults with T1D. […] On day 7 of the ^3H-thymidine incorporation assay, 20% (4/20) of healthy controls had shown a positive response to GAD65 P10 30-mer compared to 58% (23/40) of T1D patients (FIG. 1C).

For “DAAWGGGLLMSRKHKWKLSGVERANSVTWN [P10 30-mer]”, the “hybridoma IL-2 response” value [1] was “could respond”, the “IL-2 response from hybridoma SC3” value [2] was “strong IL-2 responses” and the “average magnitude of the proliferative response” value ([3]; T1D patients vs healthy controls, Mann-Whitney p=0.0146) was “significantly increased”. The “positive response rate in 3H-thymidine incorporation assay” value ([3]; T1D patients (23/40)) was 58% and the “positive response rate in 3H-thymidine incorporation assay” value ([3]; non-diabetic healthy controls (4/20)) was 20%.
